The values that follow come from a melting point compilation (Tetko et al.; mined from patent text by program, amines drawn as free bases though some values may be those of a salt).

One may read the melting point as the temperature, or range, at which the solid turns liquid. As to `CCN1C(=O)C(C)(C)C(=O)N(C)c2cc(CN(CCn3ccc4oc(C)c(C)c4c3=O)Cc3cc(C)nn3C)ccc21`, the melting point lay in the range of 148 to 150 °C.

Turning to `C#CCOC(C(=O)O)c1ccc(Cl)cc1` (centres undefined), the melting point was in the range of 69 to 70 °C.

Compound `COc1ccc(-c2cc(=O)c3c(OC)cc(OC)c(C4=CCN(C)CC4)c3o2)cc1` returned a melting point of 179 to 181 °C.

Consider `COC(=O)c1ccc(CNc2ccc(C)c(Nc3nccc(-c4cccnc4)n3)c2)cc1`, for which the melting point amounted to 158 °C.

`Oc1ccc(-c2nc(-c3ccccc3)nc(-c3ccc(O)cc3O)n2)c(O)c1` gave a melting point of 250 to 252 °C.

`CC(C)C1(C)CC(=O)CC(C)(C)N1OC(C)(C)C#N` (centres undefined): the melting point lay in the range of 32 to 44 °C.

The compound `O=CCC1Cc2cc(Cl)c(Cl)cc2C1=O` (racemic) came in with a melting point of 93 to 96 °C.

With `Cc1oc(-c2ccccc2)nc1COc1cncc(COc2ccccc2CC(=O)O)c1`, the melting point fell in the range of 207 to 208 °C.

The compound `c1ccc(-c2ncc(-c3cnc(-c4ccccc4)o3)cn2)cc1` showed a melting point of 228 to 231 °C.

As for `N#Cc1cn(-c2c(Cl)cc(C(F)(F)F)cc2Cl)nc1C(F)(F)F`, the melting point is 116 to 118 °C.

On to `COc1ccc(N2C(=O)c3ccc(Cl)cc3C2CC(=O)O)cc1` (centres undefined), for which the melting point lay within 250 to 251 °C.

Turning to `COC(=O)c1ccc(OC)c(NC(=N)c2ccc(F)cc2F)c1`, the melting point came to 120 °C.

On to `CC(=O)SCCC(=O)N1N=C(c2ccccc2)CC1C(=O)O` (centres undefined), for which the melting point fell in the range of 137 to 139 °C.

As for `Cn1cc(C(=O)C(Cl)Cl)c(=O)c(-c2cccc(F)c2)c1`, the melting point fell in the range of 183 to 184 °C.

In turn, `CC(C)(C)c1ccc(O)c(C=NO)c1` displayed a melting point of 116 to 118 °C.

`COc1cc(N(C(=O)[C@@H](N)Cc2cnc[nH]2)S(=O)(=O)c2ccc3c(ccn3C)c2)cc(OC)c1OC` registered a melting point of 175 to 177 °C.

As to `CSCc1cnc2c(NC(=O)c3c(Cl)cccc3Cl)cccc2c1Cl`, the melting point is 173 to 175 °C.

In turn, `O=C1Nc2ccccc2C2=NC(CN3CCN(c4ccccc4)CC3)CN12` (centres undefined) returned a melting point of 257 to 258 °C.

Take `O=C(Nc1ccccc1)O[C@@H]1CN=C(c2ccc(OC(F)(F)F)cc2)O[C@H]1c1ccccc1` (racemic): the melting point was found to be 128 °C.

`CCN(CC)CCNC(=O)C1N=C(c2ccccc2)c2cc(Cl)ccc2NC1=O` (centres undefined): the melting point came to 220 °C.

For the compound `O=C1c2ccccc2S(=O)(=O)N1CSc1nnc(SCCN2CCOCC2)s1`, the melting point is 129 to 131 °C.

Consider `CSc1nc(-c2cccnc2)c(-c2ccccc2)n1C`, for which the melting point is 123 to 127 °C.

With `CCOC(=O)CCC(=O)Nc1cccc(/C=C/c2nc(C3CCC3)cs2)c1`, the melting point was 98 to 100 °C.

The compound `COc1cc2c3c(cccc3c1CNC(C)=O)C(=O)N(O)C2=O` came in with a melting point of 237 to 239 °C.

As to `CC(CCc1ccc(O)cc1)NCC(O)c1cccc(Cl)c1` (centres undefined), the melting point lay within 103 to 110 °C.

Turning to `Cc1ccc(Cl)c(Nc2ccccc2C(=O)NN)c1Cl`, the melting point fell in the range of 158 to 160 °C.

`Cn1cc(-c2nsc(Cl)n2)c2ccccc21`: the melting point was in the range of 93 to 94 °C.

`CC(C)(C)C(=O)c1c[nH]c2ncc(-c3cc(OCCS(C)(=O)=O)cc(N4CCCC4)c3)nc12` showed a melting point of 230 to 232 °C.

The compound `Cc1ccc2c(c1)NC(=O)C(NC(=O)Nc1cccc(Cl)c1)CC2C1CCCCC1` (centres undefined) came in with a melting point of 162 to 169 °C.

Compound `COC(=O)COc1c(OC)cc(C(=O)C#Cc2cc(-c3cccs3)c(OC)cc2OC)cc1OC` showed a melting point of 153 to 155 °C.

With `CC(=O)NC[C@H]1CN(c2ccc(C3CCNCC3)c(F)c2)C(=O)O1`, the melting point was in the range of 109 to 110 °C.

As to `CC(=O)OCC(=O)C1(OC(=O)c2ccccc2)CCC2C3CC(C)C4=CC(=O)C=CC4(C)C3C(O)CC21C` (centres undefined), the melting point was found to be 258 °C.

The compound `O=C1c2ccc(F)cc2CC1c1ccc(F)cc1` (centres undefined) returned a melting point of 72 to 74 °C.

On to `COc1cccc(CN2CC=C(/C=C/c3ccccc3)CC2)c1`, for which the melting point lay in the range of 75 to 77 °C.

The compound `CCCCCCCCOc1cc2cc(C(=O)OC)c(C(=O)OC)c(-c3ccncc3)c2cc1OC` came in with a melting point of 124 to 126 °C.

Turning to `C=CCn1c(=O)c(C(=O)OCC)c(N2CCN(C(=O)c3cccs3)CC2)c2cccnc21`, the melting point fell in the range of 89 to 96 °C.

In turn, `O=C1CCC2(CCCc3ccccc32)CC1` gave a melting point of 109 to 111 °C.

For the compound `Cn1cnc2ncnn2c1=S`, the melting point was 238 to 240 °C.

Compound `CCCCCCC(=N)NC(=S)Nc1ccc(Br)cc1` showed a melting point of 112 to 113 °C.

Consider `CS(=O)(=O)c1ccc(C(CC2CCCC2)C(=O)Nc2nccs2)cc1S(C)(=O)=O` (centres undefined), for which the melting point lay in the range of 104 to 107 °C.

`CSc1nccc(Oc2ccc(NC(=O)c3cc(F)cc(N4CCCCC4)c3)c3ccccc23)n1` had a melting point of 130 to 132 °C.

On to `NC(=O)CCc1ccncc1`, for which the melting point lay in the range of 164 to 166 °C.

Consider `CCOC(=O)C1=C(C)NC(C(OCC)OCC)=C(C(=O)OCC)C1c1ccccc1[N+](=O)[O-]` (centres undefined), for which the melting point fell in the range of 80 to 81.5 °C.

With `COc1cc(N2CCN(C[C@H](C)O)CC2)ccc1Nc1ncc2ccc(-c3ccccc3S(C)(=O)=O)n2n1`, the melting point lay within 98 to 100 °C.

On to `CSc1cc(-c2ccccc2)ccc1C1=NC(C)(C)CO1`, for which the melting point lay within 93 to 95 °C.

`COc1c(C)c2c(c(OS(=O)(=O)c3ccc(C)cc3)c1CC1=C(C)C(=O)CC1)C(=O)OC2` came in with a melting point of 65.4 to 66.8 °C.

For the compound `COc1cc2c(cc1OC)CCC=C2`, the melting point fell in the range of 90.5 to 91 °C.

Turning to `CC(=O)c1c(Cl)cc(Cl)cc1OCC(=O)O`, the melting point was 110 °C.

The compound `CC(=O)OC[C@H](c1ccccc1)N1C(=O)C=CC1=O` came in with a melting point of 131 to 132 °C.

Compound `CN1CC(c2cc(CCc3ccccc3)cnn2)=C(O)C1=O` came in with a melting point of 203 to 205 °C.

The compound `N#Cc1cc(Cl)nc(SCc2ccc3ccccc3c2)n1` registered a melting point of 120 to 121 °C.

As for `O=C(Nc1ccc(CN2CCCCC2)cc1)C1=Cc2cc(-c3ccc(F)cc3)ccc2CC1`, the melting point lay within 175 to 176 °C.

Compound `CC(C)NC1C(n2cccn2)=NNN1S` (centres undefined) returned a melting point of 80 to 85 °C.

Turning to `C[C@H](O)[C@H](CO)N(Cc1ccc(C#N)cc1)S(=O)(=O)c1ccc(Cl)cc1`, the melting point was 124 to 126 °C.

The compound `CCCc1nc(SC2CCC(=CC(=O)O)CC2)c(C(=O)O)n1Cc1cc2c(cc1Cl)OCO2` (centres undefined) yielded a melting point of 168 °C.

On to `COC(=O)c1nc(Br)cc(N=[N+]=[N-])c1Cl`, for which the melting point lay in the range of 84 to 86 °C.

With `COC(=O)CC(Cc1c[nH]c2ccccc12)(NC(=O)OC1C2CC3CC(C2)CC1C3)C(=O)O` (centres undefined), the melting point lay in the range of 108 to 109 °C.

Compound `CCCCCCCCCC(=O)NCCCCCC(=O)OO` showed a melting point of 63 to 67 °C.

Consider `CC12CCC3C(CC=C4C=C(N5CCCC5)CCC43C)C1CCC2=O` (centres undefined), for which the melting point was in the range of 217 to 220 °C.

`ClCCOc1ccc(OCCCl)c(Cl)c1` returned a melting point of 135 to 137 °C.

In turn, `CCOc1cc2cc(C3=NNC(=O)CC3C)sc2cc1OCC` (centres undefined) displayed a melting point of 170 to 171 °C.

`Cc1oc(-c2ccccc2)nc1COc1ccc(COc2ncccc2CC(=O)O)cc1`: the melting point was 144 to 145 °C.

In the case of `Nc1nc(N)nc(-c2ccc(S(=O)(=O)c3ccccc3)cc2)n1`, the melting point was over 250 °C.

For `COC(=O)c1cc2c3cc([N+](=O)[O-])ccc3n(C)c2s1`, the melting point lay in the range of 269 to 271 °C.
